The subject of test [1] is S. enterica serotype typhimurium isolate. As to the kind of experiment: Antibiotic susceptibility testing (microdilution MIC, VITEK, NCCLS disk diffusion). It counts as cell-based, Salmonella enterica serotype Typhimurium. In general terms: Dilution methods test growth across graded concentrations, often in twofold steps.
The test system of a further test is K. pneumoniae strain 249. As to the kind of experiment: Overnight microdilution susceptibility test (MicroScan panels, NCCLS criteria). It counts as cell-based. The following applies: Klebsiella pneumoniae, K. pneumoniae 249, combinations as drug/clavulanate, read-out: Minimum Inhibitory Concentrations (MICs). As to the method:
Susceptibility tests were performed on K. pneumoniae 249 by an overnight microdilution method with investigational dehydrated panels provided by Dade Behring MicroScan (Sacramento, Calif.) according to the manufacturer's recommendations and interpreted according to National Committee for Clinical Laboratory Standards (NCCLS) criteria and by NCCLS disc diffusion (National Committee for Clinical Laboratory Standards (NCCLS), “Methods for Dilution Antimicrobial Susceptibility Tests for Bacteria that Grow Aerobically: Approved Standard M7-A4,” Villanova, Pa. (1997); and Hanson et al., J. Antimicrob. Chemother., 44(3):377-380 (September 1999)). The test was performed using an innoculum of approximately 5×10^5 colony forming units per square milliliter (cfu/mL^2). Isoelectric focusing (IEF), cefotaxime hydrolysis and inhibitor determinations in polyacrylamide gels were performed using sonic extracts of K. pneumoniae 249 (Thomson et al., Antimicrob. Agents Chemother., 35:1001-1003 (1991)).

Test [2] deals with S. enterica serotype typhimurium isolate. The test is described as follows: Phenotypic inhibitor-based ESBL tests (double disk potentiation with clavulanate). The class given is cell-based, Salmonella enterica serotype Typhimurium. As to conditions: for potentiation by clavulanate (ESBL tests positive): with clavulanate. An excerpt:
Susceptibility testing and β-lactamase investigations. Antibiotic susceptibilities and resistance phenotypes were investigated by microdilution MIC methodology, double disk potentiation, VITEK (card GNS-424, bioMérieux, Inc. St. Louis, Mo.), NCCLS disk diffusion, and the three dimensional test (Thomson et al., Antimicrob. Agents Chemother., 35(5):1001-1003 (May 1991); and Thomson et al., Antimicrob. Agents Chemother., 36(9):1877-1882 (September 1992)).

Test [3] deals with T1, beta-lactamase band of isoelectric point 9.1 (AmpC enzyme) of K. pneumoniae 249 (Klebsiella pneumoniae, UniProt Q48434).
T1 construct: performed using sonic extracts of K. pneumoniae 249; endogenous in cells; host or cells: Klebsiella pneumoniae strain 249 (clinical urine isolate), sonic extract
T1 sequence (Q48434 21-381): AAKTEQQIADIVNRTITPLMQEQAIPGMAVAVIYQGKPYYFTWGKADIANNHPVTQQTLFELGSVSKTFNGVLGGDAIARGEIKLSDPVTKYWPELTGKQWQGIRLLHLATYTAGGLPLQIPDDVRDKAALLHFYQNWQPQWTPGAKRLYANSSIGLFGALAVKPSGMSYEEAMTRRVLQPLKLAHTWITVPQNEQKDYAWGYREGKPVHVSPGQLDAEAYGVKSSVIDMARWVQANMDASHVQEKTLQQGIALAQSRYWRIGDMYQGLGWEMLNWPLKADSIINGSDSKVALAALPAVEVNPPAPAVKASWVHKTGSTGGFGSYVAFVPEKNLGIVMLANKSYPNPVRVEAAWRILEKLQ
The test is described as follows: Isoelectric focusing, cefotaxime hydrolysis and inhibitor determinations in polyacrylamide gels, sonic extracts. The class given is biochemical. The following applies: sonic extracts of K. pneumoniae 249, polyacrylamide gel; for inhibition of the band of isoelectric point 9.1: inhibitor 1000 mM. As to the method:
The test was performed using an innoculum of approximately 5×10^5 colony forming units per square milliliter (cfu/mL^2).
The cefoxitin, ceftriaxone/clavulanate and ceftazidime/clavulanate MICs indicated two possible mechanisms of resistance, the expression of a plasmid-mediated ampC gene and/or a porin mutation. […] Three beta-lactamases were identified with isoelectric points of 5.4, 7.6, and 9.1. The band that focused at isoelectric point 9.1 hydrolyzed cefotaxime and was inhibited by cloxacillin (1000 mM), but not clavulanate (1000 mM). These findings indicated it was an AmpC enzyme.

Test [4] deals with T2, beta-lactamase pI 7.4 (OXA-1 or OXA-30) (Escherichia coli, UniProt P13661).
T2 construct: Crude beta-lactamase preparations derived from sonicated bacterial cultures of the S. typhimurium isolate; endogenous in cells; host or cells: Salmonella enterica serotype Typhimurium clinical stool isolate, sonicated culture
T2 sequence (P13661 26-276): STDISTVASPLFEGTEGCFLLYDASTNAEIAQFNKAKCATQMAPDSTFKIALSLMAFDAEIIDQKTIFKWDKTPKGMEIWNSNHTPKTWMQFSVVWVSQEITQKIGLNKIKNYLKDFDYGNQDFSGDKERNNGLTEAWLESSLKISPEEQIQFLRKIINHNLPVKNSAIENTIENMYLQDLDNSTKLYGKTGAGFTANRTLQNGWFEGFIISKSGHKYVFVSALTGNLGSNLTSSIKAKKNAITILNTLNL
It counts as biochemical, Salmonella enterica serotype Typhimurium. The following applies: isoelectric focusing, crude preparation.

Test [5] relates to beta-lactamase pI 8.2 (SHV-9). As to the kind of experiment: Isoelectric focusing with general inhibitor characteristics, crude beta-lactamase preparations. It counts as biochemical, Salmonella enterica serotype Typhimurium. As to conditions: crude preparation. The protocol:
(§1) Crude beta-lactamase preparations derived from sonicated bacterial cultures of the S. typhimurium isolate and strains producing reference beta-lactamases were assessed for beta-lactamase pls and general inhibitor characteristics by isoelectric focusing (Thomson et al., Antimicrob. Agents Chemother., 35(5):1001-1003 (May 1991).

Test [6] has as its system beta-lactamase pI>9.0 (AmpC). The description is as above. The following applies: crude preparation. It counts as biochemical, Salmonella enterica serotype Typhimurium. The protocol: as §1

Values after ≈ are worked out from the molar mass of the structure shown. Where two headings read alike, the source gives them in different places.

Take `NCC[C@H](O)C(=O)N[C@@H]1C[C@H](N)[C@@H](O[C@H]2O[C@H](CN)[C@@H](O)[C@H](O)[C@H]2O)[C@H](O)[C@H]1O[C@H]1O[C@H](CO)[C@@H](O)[C@H](N)[C@H]1O` [Amikacin]: the MIC in test [1] (Table 2) is above 64 µg/mL.

As to `CC1(C)S[C@@H]2[C@H](NC(=O)[C@H](N)c3ccccc3)C(=O)N2[C@H]1C(=O)O` [Ampicillin], the figures for the MIC (with K. pneumoniae strain 249; in test [1] (Table 2)) were above 16 µg/mL and above 256 µg/mL, respectively.

Consider `C=CC1=C(C(=O)O)N2C(=O)[C@@H](NC(=O)/C(=N\OCC(=O)O)c3csc(N)n3)[C@H]2SC1` [Cefixime], for which, in test [1] (Table 2), the MIC is above 128 µg/mL.

`CC=CC1=C(C(=O)O)N2C(=O)[C@@H](NC(=O)[C@H](N)c3ccc(O)cc3)[C@H]2SC1` [Cefprozil] yielded an MIC in test [1] (Table 2) above 128 µg/mL.

In the case of `CC(C)(O/N=C(\C(=O)N[C@@H]1C(=O)N2C(C(=O)[O-])=C(C[n+]3ccccc3)CS[C@H]12)c1csc(N)n1)C(=O)O` [Ceftazidime], the figures for the MIC (with K. pneumoniae strain 249; in test [1] (Table 2)) were 16 µg/mL and above 32 µg/mL, respectively. Also, in test [1], the “susceptibility category (susceptible / intermediate / resistant)” value is given as “resistance”.

On to `CO/N=C(\C(=O)N[C@@H]1C(=O)N2C(C(=O)O)=C(CSc3nc(=O)c(=O)[nH]n3C)CS[C@H]12)c1csc(N)n1` [Ceftriaxone], for which the MIC is 16 µg/mL in the test with K. pneumoniae strain 249 and above 128 µg/mL in test [1] (Table 2).

`CO/N=C(\C(=O)N[C@@H]1C(=O)N2C(C(=O)O)=C(COC(N)=O)CS[C@H]12)c1ccco1` [Cefuroxime]: the MIC in test [1] (Table 2) is above 256 µg/mL.

Regarding `CC(=O)OCC1=C(C(=O)O)N2C(=O)[C@@H](NC(=O)Cc3cccs3)[C@H]2SC1` [Cephalothin], the MIC in the test on K. pneumoniae strain 249 is above 16 µg/mL; in test [1] (Table 2), above 32 µg/mL.

Turning to `O=C(N[C@H](CO)[C@H](O)c1ccc([N+](=O)[O-])cc1)C(Cl)Cl` [Chloramphenicol], the “susceptibility category (susceptible / intermediate / resistant)” value in test [1] is recorded as “resistant”. This molecule also returned an MIC in test [1] (Table 2) above 256 µg/mL.

Take `O=C(O)c1cn(C2CC2)c2cc(N3CCNCC3)c(F)cc2c1=O` [Ciprofloxacin]: the “susceptibility category (susceptible / intermediate / resistant)” value in test [1] is on record as “susceptible”.

For the molecule `C[C@@H](O)[C@H]1C(=O)N2C(C(=O)O)=C([C@H]3CCCO3)S[C@H]12` [Faropenem], the MIC in test [1] (Salmonella enterica, read-out: MIC) worked out at 2 µg/mL (≈ 7.01 µM); in test [1] (Table 2) it was 2 µg/mL (≈ 7.01 µM).

Regarding `C[C@@H](O)[C@H]1C(=O)N2C(C(=O)O)=C(SCCN=CN)C[C@H]12` [Imipenem], the MIC in test [1] (Table 2) came to 0.25 µg/mL (≈ 0.835 µM).

For the molecule `C[C@H]1COc2c(N3CCN(C)CC3)c(F)cc3c(=O)c(C(=O)O)cn1c23` [Levofloxacin], in test [1] (Table 2), the MIC is 0.5 µg/mL (≈ 1.38 µM).

`C[C@@H](O)[C@H]1C(=O)N2C(C(=O)O)=C(S[C@@H]3CN[C@H](C(=O)N(C)C)C3)[C@H](C)[C@H]12` [Meropenem]: the values for the MIC (in the test with K. pneumoniae strain 249; in test [1] (Table 2)) were at most 0.5 µg/mL and “less than 2”, respectively. The “susceptibility category (susceptible / intermediate / resistant)” value in test [1] was “susceptible”.

For `NC[C@H]1O[C@H](O[C@H]2[C@H](O)[C@@H](O[C@H]3O[C@H](CO)[C@@H](O)[C@H](N)[C@H]3O)[C@H](N)C[C@@H]2N)[C@H](N)C[C@@H]1O` [Tobramycin], in test [1] (Table 2), the MIC is above 16 µg/mL.

On to `C[C@H]1[C@H](NC(=O)/C(=N\OC(C)(C)C(=O)O)c2csc(N)n2)C(=O)N1S(=O)(=O)O` [aztreonam], for which the “susceptibility category (susceptible / intermediate / resistant)” value in test [1] is “resistance”. Besides, the “reversal of resistance by the addition of clavulanate” value in test [2] (addition of clavulanate) is on record as “partially reversible”. Further, the “potentiation by clavulanate (ESBL tests positive)” value (shortened to “potentiation by clavulanate”) in test [2] was “potentiation”.

Consider `CO/N=C(\C(=O)N[C@@H]1C(=O)N2C(C(=O)[O-])=C(C[N+]3(C)CCCC3)CS[C@H]12)c1csc(N)n1` [cefepime], for which, in the test with K. pneumoniae strain 249, the MIC is at most 4 µg/mL. Moreover, the “susceptibility category (susceptible / intermediate / resistant)” value in test [1] is given as “intermediate”. Also, the “potentiation by clavulanate” value in test [2] is on record as “potentiation”.

Regarding `CO/N=C(\C(=O)N[C@@H]1C(=O)N2C(C(=O)O)=C(COC(C)=O)CS[C@H]12)c1csc(N)n1` [cefotaxime], the “cefotaxime hydrolysis by the band of isoelectric point 9.1” value in test [3] was “hydrolyzed”. In addition, in test [1], the “susceptibility category (susceptible / intermediate / resistant)” value is recorded as “resistance”.

With `CO[C@@]1(NC(=O)Cc2cccs2)C(=O)N2C(C(=O)O)=C(COC(N)=O)CS[C@@H]21` [cefoxitin], in the test with K. pneumoniae strain 249, the MIC is above 32 µg/mL. In addition, the “susceptibility category (susceptible / intermediate / resistant)” value in test [1] was “resistance”.

As to `CO/N=C(\C(=O)N[C@@H]1C(=O)N2C(C(=O)[O-])=C(C[n+]3cccc4c3CCC4)CS[C@H]12)c1csc(N)n1` [cefpirome], the “potentiation by clavulanate” value in test [2] was “potentiation”.

Turning to `COCC1=C(C(=O)O)N2C(=O)[C@@H](NC(=O)/C(=N\OC)c3csc(N)n3)[C@H]2SC1` [cefpodoxime], the MIC with K. pneumoniae strain 249 was above 4 µg/mL.

Turning to `O=C(O)[C@H]1/C(=C/CO)O[C@@H]2CC(=O)N21` [clavulanate], the “inhibition of the band of isoelectric point 9.1” value in test [3] is “not”. For the same molecule, the “inhibition of beta-lactamase pI 7.4” value in test [4] is “inhibited”. In test [5], the “inhibition of beta-lactamase pI 8.2” value is “inhibited”. Also, the “inhibition of beta-lactamase pI>9.0” value in test [6] is reported as “not”.

On to `Cc1onc(-c2ccccc2Cl)c1C(=O)N[C@@H]1C(=O)N2[C@@H]1SC(C)(C)[C@@H]2C(=O)O` [cloxacillin], for which the “inhibition of the band of isoelectric point 9.1” value in test [3] is reported as “inhibited”. The “inhibition of beta-lactamase pI 7.4” value in test [4] is reported as “not”. For the same molecule, the “inhibition of beta-lactamase pI>9.0” value in test [6] is “inhibited”.

For the molecule `CCN1CCN(C(=O)N[C@@H](C(=O)N[C@@H]2C(=O)N3[C@@H]2SC(C)(C)[C@@H]3C(=O)O)c2ccccc2)C(=O)C1=O` [piperacillin], the MIC in the test with K. pneumoniae strain 249 is above 64 µg/mL.

In the case of `CC1(C)S[C@@H]2[C@H](NC(=O)[C@H](C(=O)O)c3ccsc3)C(=O)N2[C@H]1C(=O)O` [ticarcillin], the MIC in the test with K. pneumoniae strain 249 was above 64 µg/mL.

Turning to Cotrimoxazole, the “susceptibility category (susceptible / intermediate / resistant)” value in test [1] is “resistant”. The MIC in test [1] (Table 2) was above 320 µg/mL.

In test [1] (Table 2), Gentamicin showed an MIC above 16 µg/mL.
